From ChEMBL document CHEMBL3045406, “Enantioselective Relieving Activity of α-Methylbenzylphenylureas toward Bensulfuron-methyl Injury to Rice (Oryza sativa)” (Biosci Biotechnol Biochem, 1999) come the findings set out here.

Molecules are shown by their SMILES.

Series [1] relates to Oryza sativa. The series can be described thus: Effect on Oryza sativa (rice) assessed as growth rate at 10 uM relative to control. It counts as organism-based. As to conditions: in vivo.
Series [2] has as its system Oryza sativa. Kind of series: Safener indices, ratio of compound effect of Oryza sativa (rice) growth rate to relieving activity against bensulfuron-methyl induced injury to Oryza sativa growth rate at 1 uM.
Series [3] deals with Oryza sativa. Kind of series: Relieving activity against bensulfuron-methyl induced injury to Oryza sativa (rice) assessed as growth rate at 1 uM (Rbv = 46 to 53%). It counts as functional.
For series [4], the system named is Oryza sativa. The series can be described thus: Relieving activity against bensulfuron-methyl induced injury to Oryza sativa (rice) assessed as growth rate at 10 uM (Rbv = 46 to 53%). It counts as functional.
Series [5] deals with Oryza sativa. Kind of series: Effect on Oryza sativa (rice) assessed as growth rate at 1 uM relative to control. Format: organism-based. Particulars: in vivo.
Series [6] concerns Oryza sativa. The series can be described thus: Effect on Oryza sativa (rice) assessed as growth rate at 0.1 uM relative to control. It counts as organism-based. As to conditions: in vivo.
Series [7] relates to Oryza sativa. The series can be described thus: Safener indices, ratio of compound effect of Oryza sativa (rice) growth rate to relieving activity against bensulfuron-methyl induced injury to Oryza sativa growth rate at 0.1 uM.
For series [8], the system named is Oryza sativa. Kind of series: Safener indices, ratio of compound effect of Oryza sativa (rice) growth rate to relieving activity against bensulfuron-methyl induced injury to Oryza sativa growth rate at 10 uM.
Series [9] is described as follows: Hydrophobicity, log K of the compound. Particulars: octanol/water. Format: physicochemical.
For series [10], the system named is Oryza sativa. Kind of series: Relieving activity against bensulfuron-methyl induced injury to Oryza sativa (rice) assessed as growth rate at 0.1 uM (Rbv = 46 to 53%). It counts as functional.

Regarding `C[C@H](NC(=O)Nc1cccc(C(F)(F)F)c1)c1ccccc1`, the Activity was 92% in the series on Oryza sativa [1]; 75% in the series with Oryza sativa [3]; 82% in the series with Oryza sativa [4]; 93% with Oryza sativa [5]; 94% in the series on Oryza sativa [6]; 62% in the series with Oryza sativa [10]. For the same compound, the Ratio worked out at 53 in the series with Oryza sativa [2], 26 in the series with Oryza sativa [7] and 66 with Oryza sativa [8]. The “log K” value in series [9] was determined as 0.542.
`C[C@@H](NC(=O)Nc1cc(F)cc(F)c1)c1ccccc1`: the Activity is given as 96% in the series with Oryza sativa [1]; 59% with Oryza sativa [3]; 65% in the series on Oryza sativa [4]; 98% with Oryza sativa [5]; 98% in the series on Oryza sativa [6]; 54% with Oryza sativa [10]. The Ratio was determined as 20 in the series with Oryza sativa [2], 10 in the series on Oryza sativa [7] and 33 in the series with Oryza sativa [8]. In [9], the “log K” value was determined as 0.452.
As to `C[C@@H](NC(=O)Nc1cccc(C(F)(F)F)c1)c1ccccc1`, the Activity is 70% with Oryza sativa [1]; 63% with Oryza sativa [3]; 68% with Oryza sativa [4]; 72% with Oryza sativa [5]; 82% in the series on Oryza sativa [6]; 57% in the series with Oryza sativa [10]. Moreover, the Ratio in the series on Oryza sativa [2] is given as 41; in the series on Oryza sativa [7], 26; with Oryza sativa [8], 50. In series [9], the “log K” value is listed as 0.542.
In the case of `Cc1ccc(NC(=O)NC(C)(C)c2ccccc2)cc1` [DAIMURON], the Activity in the series with Oryza sativa [1] is on record as 77%; in the series with Oryza sativa [3], 88%; in the series on Oryza sativa [4], 79%; in the series on Oryza sativa [5] it was 89%; in the series with Oryza sativa [6] it was 99%; in the series on Oryza sativa [10] it was 74%. For the same compound, the Ratio in the series with Oryza sativa [2] amounted to 78; in the series with Oryza sativa [7], 47; in the series on Oryza sativa [8] it was 66. Also, the “log K” value in [9] is listed as 0.487.
Regarding `Cc1ccc(NC(=O)N[C@@H](C)c2ccccc2)cc1`, the Activity is recorded as 100% in the series on Oryza sativa [1]; 86% in the series with Oryza sativa [3]; 91% with Oryza sativa [4]; 99% in the series with Oryza sativa [5]; 100% in the series with Oryza sativa [6]; 72% in the series on Oryza sativa [10]. Also, the Ratio is recorded as 73 in the series on Oryza sativa [2], 45 in the series with Oryza sativa [7] and 82 in the series with Oryza sativa [8]. Moreover, in series [9], the “log K” value is reported as 0.367.
For the compound `C[C@H](NC(=O)Nc1cccc(F)c1F)c1ccccc1`, the Activity in the series with Oryza sativa [1] worked out at 100%; with Oryza sativa [3], 88%; in the series on Oryza sativa [4] it was 93%; in the series on Oryza sativa [5], 100%; with Oryza sativa [6], 100%; with Oryza sativa [10], 68%. The values for the Ratio with Oryza sativa [2], in the series on Oryza sativa [7] and with Oryza sativa [8] were 75, 36 and 87, respectively. In addition, in [9], the “log K” value turned out to be 0.435.
Take `C[C@@H](NC(=O)Nc1cccc(Cl)c1)c1ccccc1`: the Activity in the series on Oryza sativa [1] is reported as 83%; with Oryza sativa [3], 57%; in the series with Oryza sativa [4], 61%; in the series on Oryza sativa [5], 91%; in the series on Oryza sativa [6], 97%; with Oryza sativa [10], 50%. Besides, the Ratio was 19 in the series with Oryza sativa [2], -2 in the series with Oryza sativa [7] and 32 in the series on Oryza sativa [8]. Further, the “log K” value in series [9] is listed as 0.47.
As for `C[C@H](NC(=O)Nc1ccccc1I)c1ccccc1`, the Activity with Oryza sativa [1] came to 98%; in the series on Oryza sativa [3], 85%; in the series with Oryza sativa [4], 89%; in the series on Oryza sativa [5] it was 100%; in the series on Oryza sativa [6], 99%; in the series on Oryza sativa [10], 67%. The Ratio is 70 in the series on Oryza sativa [2], 32 with Oryza sativa [7] and 77 with Oryza sativa [8]. The “log K” value in [9] is 0.502.
On to `C[C@H](NC(=O)Nc1ccccc1C(F)(F)F)c1ccccc1`, for which the Activity with Oryza sativa [1] is 97%; in the series on Oryza sativa [3] it was 70%; with Oryza sativa [4], 92%; with Oryza sativa [5], 98%; in the series on Oryza sativa [6], 97%; in the series on Oryza sativa [10], 56%. Besides, the results for the Ratio with Oryza sativa [2], in the series on Oryza sativa [7] and in the series with Oryza sativa [8] were 40, 12 and 85, respectively. In series [9], the “log K” value amounted to 0.456.
Take `CC(C)c1cccc(NC(=O)N[C@@H](C)c2ccccc2)c1`: the Activity in the series with Oryza sativa [1] is listed as 86%; in the series on Oryza sativa [3], 55%; in the series with Oryza sativa [4], 68%; in the series with Oryza sativa [5], 84%; in the series on Oryza sativa [6], 95%; with Oryza sativa [10], 47%. In addition, the Ratio in the series on Oryza sativa [2] was found to be 26; in the series with Oryza sativa [7], 6; with Oryza sativa [8], 47. For the same compound, the “log K” value in series [9] came out at 0.58.
Regarding `CC(C)c1ccccc1NC(=O)N[C@H](C)c1ccccc1`, the Activity in the series with Oryza sativa [1] turned out to be 17%; in the series on Oryza sativa [3], 48%; with Oryza sativa [4] it was 30%; in the series with Oryza sativa [5], 101%; with Oryza sativa [6], 103%; in the series on Oryza sativa [10] it was 43%. Besides, the Ratio in the series with Oryza sativa [2] is reported as 3; with Oryza sativa [7], -9; in the series on Oryza sativa [8], 24. Moreover, the “log K” value in series [9] turned out to be 0.487.
In the case of `CCCCCCc1ccc(NC(=O)N[C@H](C)c2ccccc2)cc1`, the Activity with Oryza sativa [1] was found to be 101%; in the series on Oryza sativa [3] it was 54%; with Oryza sativa [4], 61%; in the series on Oryza sativa [5] it was 101%; in the series with Oryza sativa [6], 100%; in the series with Oryza sativa [10], 52%. The Ratio in the series with Oryza sativa [2] came to 9; in the series on Oryza sativa [7] it was 6; in the series on Oryza sativa [8] it was 22. Besides, the “log K” value in [9] amounted to 1.081.
Consider `C[C@@H](NC(=O)Nc1ccc(Cl)c(Cl)c1)c1ccccc1`, for which the Activity with Oryza sativa [1] is 93%; in the series with Oryza sativa [3] it was 66%; in the series on Oryza sativa [4], 77%; with Oryza sativa [5], 96%; with Oryza sativa [6], 98%; in the series on Oryza sativa [10] it was 57%. Besides, the Ratio turned out to be 34 in the series on Oryza sativa [2], 15 in the series with Oryza sativa [7] and 56 in the series on Oryza sativa [8]. Also, in series [9], the “log K” value is given as 0.61.
Regarding `C[C@@H](NC(=O)Nc1ccccc1C(C)(C)C)c1ccccc1`, the Activity in the series on Oryza sativa [1] was determined as 17%; with Oryza sativa [3], 61%; in the series with Oryza sativa [4], 40%; in the series with Oryza sativa [5], 95%; in the series with Oryza sativa [6], 100%; with Oryza sativa [10] it was 58%. For the same compound, the results for the Ratio in the series with Oryza sativa [2], in the series on Oryza sativa [7] and in the series with Oryza sativa [8] were 24, 15 and 34, respectively. The “log K” value in series [9] was 0.535.
For `CCOC(=O)c1ccccc1NC(=O)N[C@H](C)c1ccccc1`, the Activity with Oryza sativa [1] was found to be 100%; in the series with Oryza sativa [3], 63%; in the series with Oryza sativa [4], 77%; with Oryza sativa [5], 100%; in the series on Oryza sativa [6], 100%; with Oryza sativa [10] it was 53%. Also, the Ratio worked out at 25 in the series with Oryza sativa [2], 6 in the series with Oryza sativa [7] and 54 with Oryza sativa [8]. In [9], the “log K” value is recorded as 0.667.
On to `C[C@@H](NC(=O)Nc1cc(Cl)ccc1Cl)c1ccccc1`, for which the Activity stood at 101% in the series on Oryza sativa [1]; 68% with Oryza sativa [3]; 77% with Oryza sativa [4]; 100% with Oryza sativa [5]; 99% in the series on Oryza sativa [6]; 64% in the series with Oryza sativa [10]. In addition, the Ratio was 37 with Oryza sativa [2], 26 with Oryza sativa [7] and 52 with Oryza sativa [8]. Besides, the “log K” value in series [9] turned out to be 0.704.
In the case of `C[C@H](NC(=O)Nc1ccc(Cl)cc1Cl)c1ccccc1`, the Activity in the series on Oryza sativa [1] stood at 99%; in the series on Oryza sativa [3], 80%; with Oryza sativa [4] it was 87%; with Oryza sativa [5], 100%; in the series with Oryza sativa [6], 100%; in the series on Oryza sativa [10], 68%. Also, the Ratio with Oryza sativa [2] was determined as 59; in the series on Oryza sativa [7] it was 33; in the series with Oryza sativa [8], 73. For the same compound, the “log K” value in series [9] was 0.688.
Regarding `C[C@H](NC(=O)Nc1ccc(I)cc1)c1ccccc1`, the Activity is 95% in the series on Oryza sativa [1]; 85% with Oryza sativa [3]; 92% with Oryza sativa [4]; 97% in the series on Oryza sativa [5]; 99% in the series with Oryza sativa [6]; 70% with Oryza sativa [10]. Further, the Ratio was 70 in the series with Oryza sativa [2], 39 with Oryza sativa [7] and 85 in the series with Oryza sativa [8]. In addition, the “log K” value in series [9] is on record as 0.556.
As to `COc1cccc(NC(=O)N[C@H](C)c2ccccc2)c1`, the Activity is given as 70% in the series with Oryza sativa [1]; 63% in the series with Oryza sativa [3]; 73% in the series with Oryza sativa [4]; 92% with Oryza sativa [5]; 104% with Oryza sativa [6]; 54% in the series with Oryza sativa [10]. For the same compound, the Ratio is recorded as 27 in the series on Oryza sativa [2], -5 with Oryza sativa [7] and 57 in the series with Oryza sativa [8]. Moreover, the “log K” value in series [9] is on record as 0.277.
For the compound `CC(C)c1ccc(NC(=O)N[C@H](C)c2ccccc2)cc1`, the Activity in the series on Oryza sativa [1] turned out to be 49%; in the series with Oryza sativa [3] it was 67%; in the series on Oryza sativa [4], 49%; in the series with Oryza sativa [5], 79%; in the series on Oryza sativa [6], 99%; with Oryza sativa [10], 49%. Further, the Ratio in the series with Oryza sativa [2] turned out to be 47; with Oryza sativa [7] it was 7; with Oryza sativa [8], 34. Also, in [9], the “log K” value came to 0.577.
